Reference: patent US20200360471A1, “METHODS OF TREATING AND PREVENTING VIRAL INFECTIONS” (priority 2017, published 2020)
pIC50: −log10 of the molar value. Peptide text beside a SMILES is read from it. * marks the point of attachment. Decanoyl = CCCCCCCCCC(=O)*; CH2Cl = ClC*

Tests used:
HPVS PsV = conditions: read-out: IC50, inhibition of uptake of HPVS PsV; PsV 1:6000 dilution, 293TT cells
Description: Pseudovirus (PsV) of HPVS was prepared using method described by Buck et al, (Journal of Virology, January 2004; 751-757) and used as a model HPV in this study. The PsV stocks were prepared by co-transfecting human 293TT cells with HPVS viral plasmid p5Shell containing codon-modified papillomavirus capsid genes for L1 and L2 proteins, and pcLucF reporter plasmid containing the luciferase gene for detecting viral infection. The cell lysates containing the capsidized virus was used as the PsV stock. Optimal PsV dilution factor was determined based on the luciferase activity in 293TT cells infected with serially diluted HPVS PsV.
Data were collected on a Molecular Devices Flexstation 3 Microplate Reader using Softmax Pro v5.4.4. Data analysis was performed on Prism software using four parameter logistic model. […] Furin Inhibitor I was used as a positive control for HPVS PsV inhibition since it blocks the viral entry into host cells.
Two runs were performed for each dilution level.

TLR7 [1] = assay: Ongoing inflammation in PBMC cultures: imiquimod 3 hrs followed by omiganan 21 hrs; type: cell-based, human; conditions: imiquimod alone, PBMC
Description: (§1) Primary cell cultures were prepared in RPMI including 5% autologous plasma. Isolated PBMC cells were cultured in 96-well plates at a density of 0.5×10^6cells/well at 37° C., under humidified 5% CO2.
(§2) IL-1β, TNFα, IL-6 and IL-8 were measured simultaneously with a fixed electrochemoluminescence platform based on the sandwich ELISA principle of capture and detection antibodies, produced by MESO SCALE DISCOVERY (MSD, MESO SCALE QUICKPLEX SQ120). The applied assay was the V-PLEX PLUS pro-inflammatory cytokine panel II, including IL-1β, TNFα, IL-6 and IL-8. This assay includes manufacturer-provided control samples with indicated nominal values for comparison. These lyophilized controls, i.e. freeze-dried controls for IL-1β, TNFα, IL-6, IL-8, were prepared freshly at the time of use. QC samples were prepared from the calibrator at 3 different concentrations along the standard curve as multiple aliquots from a single batch and maintained at −20° C. Low, medium and high concentration controls were included in every multiplex assay run to control intra- and inter-assay variation. V-PLEX panels are specific for the detection of human chemokines and cytokines, and combinations have been validated by the manufacturer, to ensure no cross-reactivity.
Briefly, PBMC primary cultures were prepared from 4 donors. […] The readouts for the following cytokine and chemokine release were measured: IL-1β, IL-2, IL-4, IL-6, IL-8 HA, IL-8, IL-12p70, IL-13, IFN-γ, and TNF-α were measured. The cultures were prepared in duplicate.

TLR3/RIG-1/Mda5 = assay: polyI:C-induced cytokine responses in PBMC cultures with peptide pre-treatment; type: cell-based, human; conditions: 5 or 25 μg/mL peptide, 30 min pre-treatment, 24 hrs
Description: as §1, §2
(§3) IFNα was quantified by a sandwich ELISA based on specific capture and detection antibodies for various matrices (MABTECH), according to the manufacturer's instructions. QC samples were prepared from the calibrator at 3 different concentrations along the standard curve as multiple aliquots from a single batch and maintained at −20° C.
as §3, with “IFNβ” for “IFNα”, “(PBL ASSAY SCIENCE),” for “(MABTECH),”, “C. freezer.” for “C.”
(§4) Briefly, PBMC primary cultures were prepared from 4 healthy donors (2 males, 2 females) as described above. […] The cultures were prepared in duplicate and the readouts for pan-IFNα and IFNβ (ELISA) were measured once. Five-point concentration-response curves were constructed for the various treatment conditions in the PBMC cultures, freshly isolated from 4 subjects.

TLR7 [2] = assay: imiquimod-induced cytokine responses in PBMC cultures with peptide pre-treatment; type: cell-based, human
Description: as §1, §2, §3
as §3, with “IFNβ” for “IFNα”, “(PBL ASSAY SCIENCE),” for “(MABTECH),”, “C. freezer.” for “C.”
as §4

[3] = tested on: toll-like receptor 3 (TLR3) pathways / RIG-1/Mda5; assay: Qualification of the polyI:C PBMC challenge (cytokine release, 24 hrs); type: cell-based, human
Description: Peripheral Blood Mononuclear Cells (PBMCs) were isolated from sodium heparinized blood samples from healthy donors using SEPMATE with LYMPHOPREP ([…] TECHNOLOGIES) based on ficoll density centrifugation. Primary cell cultures were prepared in RPMI including 5% autologous plasma. Isolated PBMC cells were cultured in 96-well plates at a density of 0.5×10^6cells/well at 37° C., under humidified 5% CO2.
IL-1β, TNFα, IL-6 and IL-8 were measured simultaneously with a fixed electrochemoluminescence platform based on the sandwich ELISA principle of capture and detection antibodies, produced by MESO SCALE DISCOVERY (MSD, MESO SCALE QUICKPLEX SQ120). The applied assay was the V-PLEX PLUS pro-inflammatory cytokine panel II, including IL-1β, TNFα, IL-6 and IL-8. This assay includes manufacturer-provided control samples with indicated nominal values for comparison. These lyophilized controls, i.e. freeze-dried controls for IL-1β, TNFα, IL-6, IL-8, were prepared freshly at the time of use. […]
IFNα was quantified by a sandwich ELISA based on specific capture and detection antibodies for various matrices (MABTECH), according to the manufacturer's instructions. […]
IFNβ was quantified by a sandwich ELISA based on specific capture and detection antibodies for various matrices (PBL ASSAY SCIENCE), according to the manufacturer's instructions. […]

[4] = 5 or 25 μg/mL peptide, 30 min pre-treatment, 24 hrs
[5] = right-shift of imiquimod concentration response curves

Compound: CCCCCCCCCC(=O)N[C@@H](CCCN=C(N)N)C(=O)N[C@H](C(=O)N[C@@H](CCCCN)C(=O)N[C@@H](CCCN=C(N)N)C(=O)CCl)C(C)C [Furin Inhibitor I, reference compound] (Decanoyl-RVKR-CH2Cl)
- pIC50 (HPVS PsV): 6.70

Compound: CC(C)Cn1cnc2c(N)nc3ccccc3c21 [Imiquimod, imiquimod]
- concentration-effect relationship for IL-6 and TNF-α (TLR7 [1]): bell-shaped
- imiquimod concentration inducing IL-6 release (TLR7 [1]): exceeding 0.4 μg/ml
- imiquimod concentration inducing IL-8 release (TLR7 [1]): exceeding 0.4 μg/ml
- imiquimod concentration inducing TNF-α release (TLR7 [1]): exceeding 0.4 μg/ml
- imiquimod concentration needed for IL-10 release (TLR7 [1]): exceeding 2 μg/ml

Compound: LLGDFFRKSKEKIGKEFKRIVQRIKDFLRNLVPRTES (LLGDFFRKSKEKIGKEFKRIVQRIKDFLRNLVPRTES; LL-37 peptide) [antimicrobial peptide belonging to the cathelicidin family, synthesized by ANASPEC]
- IL-6 responses to polyI:C (TLR3/RIG-1/Mda5) (TLR3/RIG-1/Mda5): did not significantly affect
- TNFα responses to polyI:C (TLR3/RIG-1/Mda5) (TLR3/RIG-1/Mda5): did not significantly affect
- polyI:C-driven IL-1β release (TLR3/RIG-1/Mda5): did not significantly affect
- spontaneous and polyI:C-driven IL-8 release (TLR3/RIG-1/Mda5): strongly inhibited
- interferon responses induced by polyI:C stimulation (TLR3/RIG-1/Mda5; PBMC of 4 donors): enhanced
- IL-6 responses to imiquimod (TLR7) (TLR7 [2]; [4]): inhibited
- TNFα responses to imiquimod (TLR7) (TLR7 [2]; [4]): inhibited
- interferon responses in the presence of imiquimod (TLR7 [2]; 5 or 25 μg/mL peptide, 30 min pre-treatment, 24 hrs, PBMC of 4 donors): induced strong interferon responses
- IL-1(3 responses to imiquimod (TLR7)) (TLR7 [2]; [5]): inhibited
- IL-8 responses to imiquimod (TLR7) (TLR7 [2]; [5]): inhibited

Compound: PolyI:C
- PBMC response (cytokines) ([3]; absence of the transfection carrier Lyovec): mild PBMC response
- PBMC response (cytokines) ([3]; presence of Lyovec transfection carrier): substantial polyI:C-driven responses
